What is called MIC is the lowest concentration found to suppress growth. Read a high MIC as a less susceptible organism. Usually pIC50 stands for the IC50 on a negative log10 scale, so that one unit is a factor of ten. Lower therefore signals a large IC50.

Consider five compounds from ChEMBL document CHEMBL1135290, “Synthesis of sub-micromolar inhibitors of MraY by exploring the region originally occupied by the diazepanone ring in the liposidomycin structure” (Bioorg Med Chem Lett, 2002).

SMILES strings stand for the structures. pIC50: −log10 of the molar value. Where only a bound is given, the exact number is not on record here.

One test relates to Streptococcus pyogenes. In words: Tested in vitro for antibacterial activity against Streptococcus pyogenes using micro-broth dilution method. The format is functional. In general terms: Dilution methods test growth across graded concentrations, often in twofold steps.
A further test concerns Enterococcus faecium. Put plainly: Tested in vitro for antibacterial activity against Enterococcus faecium using micro-broth dilution method. The format is functional.
The subject of another test is Staphylococcus aureus. Put plainly: Tested in vitro for antibacterial activity against Staphylococcus aureus using micro-broth dilution method. Type of test: functional.
The next test has as its system Escherichia coli. In words: Tested in vitro for antibacterial activity against Escherichia coli using micro-broth dilution method. Type of test: functional.
Test [1] can be described thus: Inhibitory activity against Translocase I.

For the compound `CCCCCCCCCCNC[C@H](O[C@@H]1O[C@H](CN)[C@@H](O)[C@H]1O)[C@@H]1C[C@@H](O)[C@H](n2ccc(=O)[nH]c2=O)O1.O=C(O)C(F)(F)F`, the MIC came out at 20 µg/mL in the test with Streptococcus pyogenes, 80 µg/mL against Enterococcus faecium, 40 µg/mL against Staphylococcus aureus and 40 µg/mL with Escherichia coli. Also, the negative logarithm of the IC50 (pIC50) in test [1] was 6.48.
Turning to `CCCCCCCCNC[C@H](O[C@@H]1O[C@H](CN)[C@@H](O)[C@H]1O)[C@@H]1C[C@@H](O)[C@H](n2ccc(=O)[nH]c2=O)O1.O=C(O)C(F)(F)F`, the MIC against Streptococcus pyogenes is over 80 µg/mL; in the test with Enterococcus faecium it was 80 µg/mL; in the test with Staphylococcus aureus it was over 80 µg/mL; in the test with Escherichia coli it was over 80 µg/mL. Besides, in test [1], the pIC50 was 6.09.
With `CCCCCCCCCCCCCCNC[C@H](O[C@@H]1O[C@H](CN)[C@@H](O)[C@H]1O)[C@@H]1C[C@@H](O)[C@H](n2ccc(=O)[nH]c2=O)O1.O=C(O)C(F)(F)F`, the minimum inhibitory concentration (MIC) with Streptococcus pyogenes turned out to be 2.5 µg/mL; against Enterococcus faecium it was 10 µg/mL; with Staphylococcus aureus it was 2.5 µg/mL; in the test on Escherichia coli, 2.5 µg/mL. Also, the pIC50 in test [1] was 6.23.
Take `CCCCCNC[C@H](O[C@@H]1O[C@H](CN)[C@@H](O)[C@H]1O)[C@@H]1C[C@@H](O)[C@H](n2ccc(=O)[nH]c2=O)O1.O=C(O)C(F)(F)F`: the MIC against Streptococcus pyogenes, with Enterococcus faecium, against Staphylococcus aureus and in the test on Escherichia coli was over 80 µg/mL each time. In test [1], this compound gave a negative-log IC50 (pIC50) of 6.05.
In the case of `CCCCCCCCCCCCNC[C@H](O[C@@H]1O[C@H](CN)[C@@H](O)[C@H]1O)[C@@H]1C[C@@H](O)[C@H](n2ccc(=O)[nH]c2=O)O1.O=C(O)C(F)(F)F`, the minimal inhibitory concentration (MIC) was determined as 2.5 µg/mL with Streptococcus pyogenes, 20 µg/mL in the test with Enterococcus faecium, 5 µg/mL against Staphylococcus aureus and 2.5 µg/mL against Escherichia coli. This compound also gave a pIC50 in test [1] of 6.15.
